Measurements published in patent publication US12605459B2, “Protein-drug conjugates comprising camptothecin analogs and methods of use thereof” (priority 2020, dated 2026).
Read-outs that look alike come from different tables or passages of the source. Non-standard residues stand in square brackets, D forms with d. Residues, ends and D or L forms follow the SMILES beside them. *: point of attachment. Dolaproine = CO[C@@H]([C@@H]1CCCN1)[C@@H](C)C(=O)O; Dil = CC[C@H](C)[C@H](NC)[C@@H](CC(=O)O)OC; X1 = C[C@@H](N*)[C@@H](O)c1ccccc1; NMeV = CN[C@H](C(=O)O)C(C)C

Tests used:
Calu-3 cells = assay type: cell-based, human; conditions: Table 27 (second experiment), six days
Protocol: (§1) To test the ability of anti-HER2 or anti-STEAP2 antibody drug conjugates (ADCs) of the present disclosure to kill human cell lines, an in vitro cytotoxicity assay was performed. In vitro cytotoxicity of the ADCs, isotype control ADCs, and reference free payloads were evaluated using the CellTiter-Glo 2.0 Assay Kit (Promega, Cat #g9243), in which the quantity of ATP present is used to determine the number of viable cells in culture.
(§2) For the assay, Calu-3, SK-BR-3, NCI-H1975, C42, or C42/STEAP2 KO (knockout) cells were seeded at 1000 cells/well in poly-D-lysine coated white 96 well Biocoat plates (Corning #356693) in complete growth medium and grown overnight at 37° C. in 5% CO2. Three-fold serial dilutions of anti-HER2 ADCs or isotype control ADCs were prepared in dilution media (Optimem+0.1% BSA) and added to cells at final concentrations ranging from 100 nM to 0.015 nM (concentrations were corrected for the DAR (drug antibody ratio) and dosed based on the effective payload concentration). Three-fold serial dilutions of free payloads were prepared in 100% DMSO, transferred to fresh dilution media, and then added to the cells at a final constant DMSO concentration of 0.2% and final payload concentrations ranging from 100 nM to 0.015 nM. The last well in each dilution series (untreated wells) served as blank controls containing only the media (ADCs) or media plus 0.2% DMSO (payloads) and was plotted as a continuation of the 3-fold serial dilution. Six days later, 100 μL of CellTiter glo 2.0 was added to each well, plates were mixed for 2 minutes on an orbital shaker, and plates were incubated at room temperature for 10 minutes. Relative light units (RLUs) were measured on an Envision luminometer (PerkinElmer), and cell viability was expressed as a percentage of the untreated (100% viable) cells. IC50 values were determined using a four-parameter logistic equation over a 10-point dose response curve (GraphPad Prism). The maximum % kill was also determined for each test article as follows: 100—minimum percent viability.

SK-BR-3 cells = assay type: cell-based, human; conditions: six days; for IC50: concentrations corrected for DAR
Protocol: as §1, §2

NCI-H1975 cells = test: In vitro cytotoxicity assay in tumor lines (CellTiter-Glo 2.0), NCI-H1975; assay type: cell-based, human; conditions: six days; for IC50: concentrations corrected for DAR
Protocol: as §1, §2

C4-2 cells = test: In vitro cytotoxicity assay in tumor lines (CellTiter-Glo 2.0), C4-2; assay type: cell-based, human
Protocol: as §1, §2

C4-2/STEAP2 KO cells = test: In vitro cytotoxicity assay in tumor lines (CellTiter-Glo 2.0), C4-2/STEAP2 KO; assay type: cell-based, human
Protocol: The last well in each dilution series (untreated wells) served as blank controls containing only the media (ADCs) or media plus 0.2% DMSO (payloads) and was plotted as a continuation of the 3-fold serial dilution. […] Relative light units (RLUs) were measured on an Envision luminometer (PerkinElmer), and cell viability was expressed as a percentage of the untreated (100% viable) cells. IC50 values were determined using a four-parameter logistic equation over a 10-point dose response curve (GraphPad Prism).

[1] = tested on: SK-BR-3, Calu-3 and NCI-H1975 cells; test: In vitro cytotoxicity assay, statements pooled over several tested lines (SK-BR-3, Calu-3, NCI-H1975); assay type: cell-based, human; conditions: all tested cells; units printed with the values (pM, nM)
Protocol: as §1
For the assay, Calu-3, SK-BR-3, NCI-H1975, C42, or C42/STEAP2 KO (knockout) cells were seeded at 1000 cells/well in poly-D-lysine coated white 96 well Biocoat plates (Corning #356693) in complete growth medium and grown overnight at 37° C. in 5% CO2. Three-fold serial dilutions of anti-HER2 ADCs or isotype control ADCs were prepared in dilution media (Optimem+0.1% BSA) and added to cells at final concentrations ranging from 100 nM to 0.015 nM (concentrations were corrected for the DAR (drug antibody ratio) and dosed based on the effective payload concentration). […] Relative light units (RLUs) were measured on an Envision luminometer (PerkinElmer), and cell viability was expressed as a percentage of the untreated (100% viable) cells. IC50 values were determined using a four-parameter logistic equation over a 10-point dose response curve (GraphPad Prism). The maximum % kill was also determined for each test article as follows: 100—minimum percent viability.

HCT-15 = test: cells; assay type: cell-based
[2] = Homo sapiens, HCT-15, read-out: IC50 (nM) +v
[3] = Homo sapiens, HCT-15, read-out: IC50 (nM) −v

CC[C@@]1(O)C(=O)OCc2c1cc1n(c2=O)Cc2c-1nc1cc(F)c(C)c3c1c2[C@@H](NC(=O)CO)CC3 [Dxd]
Calu-3 Max % Kill (Calu-3 cells): 96.3% | IC50 (Calu-3 cells; concentrations corrected for DAR): 2.14 nM | SK-BR-3 Max % Kill (SK-BR-3 cells; Table 26 (first experiment)): 97.1% | IC50 (SK-BR-3 cells; Table 26 (first experiment)): 0.787 nM | SK-BR-3 Max % Kill (SK-BR-3 cells; Table 27 (second experiment)): 98.2% | IC50 (SK-BR-3 cells; Table 27 (second experiment)): 1.56 nM | NCI-H1975 Max % Kill (NCI-H1975 cells; Table 26 (first experiment)): 95.9% | IC50 (NCI-H1975 cells; Table 26 (first experiment)): 8.91 nM | NCI-H1975 Max % Kill (NCI-H1975 cells; Table 27 (second experiment)): 96.1% | IC50 (NCI-H1975 cells; Table 27 (second experiment)): 11.8 nM | IC50 (C4-2 cells; C4-2 cells, 6 days): 2.54 nM | maximum % kill (C4-2 cells; C4-2 cells, 6 days): 81.7% | C4-2 Max % Kill (C4-2 cells; Table 28, six days): 81.7% | IC50 (C4-2/STEAP2 KO cells; C4-2/STEAP2 KO cells, 6 days): 3.43 nM | C4-2/STEAP2 KO Max % Kill (C4-2/STEAP2 KO cells; Table 28, six days): 88.9% | IC50 [1]: 787 to 11800 pM

CC[C@@]1(O)C(=O)OCc2c1cc1n(c2=O)Cc2c-1nc1cc(F)c(C)c3c1c2[C@@H](N)CC3 [P1, Exatecan]
Ratio to MMAE +v (HCT-15; HCT-15, with verapamil): 1.833x | Ratio to MMAE −v (HCT-15; HCT-15, without verapamil): 0.087x | IC50 (HCT-15; Homo sapiens, HCT-15, with verapamil, read-out: IC50 (nM) +v): 1.73 nM | IC50 (HCT-15; Homo sapiens, HCT-15, without verapamil, read-out: IC50 (nM) −v): 1.29 nM

CC[C@@]1(O)C(=O)OCc2c1cc1n(c2=O)Cc2c-1nc1cc(F)c(C)c3c1c2[C@@H](NC(=O)CO)CC3 [P2, Dxd]
IC50 (HCT-15; [2]): 2.65 nM | IC50 (HCT-15; [3]): 7 nM

CC[C@H](C)[C@@H]([C@@H](CC(=O)N1CCC[C@H]1[C@H](OC)[C@@H](C)C(=O)N[C@H](C)[C@@H](O)c1ccccc1)OC)N(C)C(=O)[C@@H](NC(=O)[C@@H](NC)C(C)C)C(C)C [MMAE] (H-[NMeV]V[Dil][Dolaproine]-X1)
Ratio to MMAE +v (HCT-15; HCT-15, with verapamil): 1x | IC50 (HCT-15; HCT-15, with verapamil, read-out: IC50 (nM) +v): 0.946 nM | Ratio to MMAE −v (HCT-15; HCT-15, without verapamil): 1x | IC50 (HCT-15; HCT-15, without verapamil, read-out: IC50 (nM) −v): 14.8 nM

CC[C@@]1(O)C(=O)OCc2c1cc1n(c2=O)Cc2c-1nc1cc(F)c(C)c3c1c2[C@@H](NC(=O)COCNC(=O)CN)CC3 [P3]
Ratio to MMAE +v (HCT-15; HCT-15, with verapamil): 23.426x | Ratio to MMAE −v (HCT-15; HCT-15, without verapamil): 3.011x | IC50 (HCT-15; [2]): 22.2 nM | IC50 (HCT-15; [3]): 44.9 nM
